Experimental data from patent US5808139A (Ligand Pharmaceuticals Incorporated, priority 1994, dated 1998).
Entries after “also recorded” stand apart in the source; their conditions may differ.

Legend:
[1] = test system: T47D cells; assay: Alkaline phosphatase activity in T47D cells (induction and its inhibition); type: cell-based, human; conditions: for Agonist activity, alkaline phosphatase induction: ligand alone, three days
Excerpt: The functional activities of the cyclocymopol analogues in the human breast cell line, T47D, were also investigated. T47D cells have proven to be a particularly useful model to investigate the molecular actions of sex steroids because they contain endogenous functional receptors for, and respond to, progestins, and their respective antagonists. Moreover, these cells contain exceptionally high titers of progesterone receptors and are exquisitely sensitive to the actions of progestins in a manner quite similar to their actions in normal and neoplastic mammary epithelial cells. In T47D cells, progestins induce de novo synthesis of a plasma-associated alkaline phosphatase, which has been reported to be similar, if not identical, to the alkaline phosphatase present in the normal breast and human milk. These tests were conducted according to the following illustrative example. […] For routine induction of alkaline phosphatase, cells were treated for three days with two media changes and harvested as described below. […] Nuclei were sedimented at 2500 rpm, and the supernatant was saved as cytosol. The protein content of the cytosol was assayed by the method of Bradford. Alkaline phosphatase activity was determined by incubating one volume of cell extract with three volumes of 1 mg/ml p-nitrophenol phosphate prepared in DEAM (1M diethanolamine, pH=9, containing 2 mM magnesium chloride) at room temperature for 20 min. At the end of the incubation time, the reaction was stopped with an equal volume of 1N NaOH. Ten standards of p-nitrophenol were prepared in DEAM buffer and absorbance was read at 405 nm. Alkaline phosphatase activity is expressed as pmol p-nitrophenol formed/min/mg protein.

[2] = molecular target: T1, glucocorticoid receptor (Homo sapiens, UniProt P04150); assay: Cross-reactivity, glucocorticoid receptor activation (agonist and antagonist); type: cell-based
T1 sequence (P04150 1-777): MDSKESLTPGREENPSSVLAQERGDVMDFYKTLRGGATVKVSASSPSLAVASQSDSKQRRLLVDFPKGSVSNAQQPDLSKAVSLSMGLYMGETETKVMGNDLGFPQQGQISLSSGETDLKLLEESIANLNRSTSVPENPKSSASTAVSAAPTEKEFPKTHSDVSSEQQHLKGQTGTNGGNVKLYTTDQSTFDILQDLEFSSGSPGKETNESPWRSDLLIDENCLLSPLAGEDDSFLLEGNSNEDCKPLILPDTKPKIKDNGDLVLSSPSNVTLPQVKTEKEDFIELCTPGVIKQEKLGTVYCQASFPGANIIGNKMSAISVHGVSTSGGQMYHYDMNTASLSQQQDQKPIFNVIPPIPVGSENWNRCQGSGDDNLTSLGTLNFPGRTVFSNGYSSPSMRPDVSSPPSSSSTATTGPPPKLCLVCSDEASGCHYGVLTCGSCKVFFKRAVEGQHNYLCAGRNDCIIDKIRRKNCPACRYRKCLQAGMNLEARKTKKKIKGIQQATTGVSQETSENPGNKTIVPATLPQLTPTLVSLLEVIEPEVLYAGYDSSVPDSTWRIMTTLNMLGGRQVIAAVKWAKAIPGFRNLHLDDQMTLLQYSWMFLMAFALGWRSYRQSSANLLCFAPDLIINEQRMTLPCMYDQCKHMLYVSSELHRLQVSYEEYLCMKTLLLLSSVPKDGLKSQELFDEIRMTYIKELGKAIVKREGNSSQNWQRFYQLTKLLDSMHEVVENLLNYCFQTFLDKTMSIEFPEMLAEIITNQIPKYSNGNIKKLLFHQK
Excerpt: This assay is described in further detail in U.S. Pat. Nos. 4,981,784 and 5,071,773, which are incorporated herein by reference. The co-transfection assay provides a method for identifying functional ligands (either agonists which mimic, or antagonists which inhibit, the effect of hormones) for ligand-responsive receptor proteins.
The co-transfection assay provides a mechanism to evaluate ability of a compound to function as an agonist or antagonist of the activity modulated by an intracellular receptor. The co-transfection assay mimics an in vivo system in the laboratory. In the co-transfection assay, a cloned gene for an intracellular receptor is introduced by transfection (a procedure to induce cells to take up foreign genes) into a background cell substantially devoid of endogenous intracellular receptors. This introduced gene directs the recipient cells to make the intracellular receptor protein. A second gene is also introduced (co-transfected) into the same cells in conjunction with the intracellular receptor gene. This second gene functions as a reporter for the transcription-modulating activity of the target intracellular receptor. The reporter acts as a surrogate for the products normally expressed by a gene under control of the target receptor and its natural hormone.
A preferred reporter gene is one which expresses the firefly enzyme luciferase. The co-transfection assay can detect small molecule agonists or antagonists of target intracellular receptors. Exposing the cells to an agonist ligand increases reporter activity in the transfected cells that can be conveniently measured, reflecting ligand-dependent, intracellular receptor-mediated increases in reporter transcription. To detect antagonists, the co-transfection assay is carried out in the presence of a constant concentration of an agonist known to induce a defined reporter signal. […]
Co-transfected cells are exposed to a medium to which is added the potential ligand that is being evaluated. […] Antagonist activity is evaluated by adding the candidate ligand and a known agonist to the co-transfected cells. […]

Agonist/antagonist activity with glucocorticoid receptor [2] | SMILES | Agonist activity, alkaline phosphatase induction [1] | Inhibition of progesterone-stimulated alkaline phosphatase activity ([1]; 1.0 nM progesterone) | Inhibition of R5020-induced alkaline phosphatase activity ([1]; R5020-induced) | Inhibition of alkaline phosphatase induced by SO-54 and SO-51 ([1]; induction by SO-54 or SO-51, FIG. 11)
slight agonist activity | C=C1CC[C@@H](Br)C(C)(C)[C@@H]1Cc1cc(OC)c(Br)cc1OC(C)=O [SO-52] | very weak agonists | – | – | –
neither agonist nor antagonist activity | C=C1CC[C@@H](Br)C(C)(C)[C@@H]1Cc1cc(OC)c(Br)cc1O [SO-53, (3R)-cyclocymopol monomethyl ether] | very weak agonists | attenuated this induction in a concentration-dependent manner; also recorded: attenuated the effects of progesterone in a concentration-dependant manner | effective antagonist of the progesterone mimic | –
significant activity | CC#C[C@]1(O)CC[C@H]2[C@@H]3CCC4=CC(=O)CCC4=C3[C@@H](c3ccc(N(C)C)cc3)C[C@@]21C [RU-486, reference compound] | – | – | – | blocked
